Measurements as given in PMC5497837 (Journal of basic and clinical physiology and pharmacology, 2016).

Molecular target: CB1 cannabinoid receptor (CB1R) (Mus musculus, UniProt P47746)
Assay: inhibition of forskolin-activated cAMP accumulation in N18TG2 cells
Format: cell-based

Chain of CB1 cannabinoid receptor (CB1R) (P47746 whole entry): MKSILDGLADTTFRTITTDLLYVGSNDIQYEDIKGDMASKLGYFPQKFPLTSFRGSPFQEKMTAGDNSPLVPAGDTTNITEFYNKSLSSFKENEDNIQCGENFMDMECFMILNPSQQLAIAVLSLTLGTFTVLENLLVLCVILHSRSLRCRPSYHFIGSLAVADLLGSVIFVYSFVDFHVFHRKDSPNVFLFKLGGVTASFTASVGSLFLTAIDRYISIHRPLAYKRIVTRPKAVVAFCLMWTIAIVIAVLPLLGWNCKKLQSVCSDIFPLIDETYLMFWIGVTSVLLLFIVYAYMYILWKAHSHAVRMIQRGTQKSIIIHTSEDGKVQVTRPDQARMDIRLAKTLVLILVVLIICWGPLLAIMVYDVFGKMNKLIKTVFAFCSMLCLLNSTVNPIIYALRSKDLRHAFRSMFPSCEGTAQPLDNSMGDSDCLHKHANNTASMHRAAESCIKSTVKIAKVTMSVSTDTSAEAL

CCCCCCC(C)(C)c1ccc([C@@H]2C[C@@H](O)CC[C@H]2CCCO)c(O)c1 [CP55940, (-)-3-[2-hydroxyl-4-(1,1-dimethylheptyl)phenyl]-4-[3-hydroxylpropyl] cyclohexan-1-ol]
EC50: 3.11 nM
